The text below walks through data of US5340929A, “Trisazo dye and dye composition containing the same” (Orient Chemical Industries, Ltd., priority 1992, dated 1994).

Series [1] concerns strains TA98. The class given is cell-based. On the procedure: Further, the trisazo dye of the present invention is a nontoxic trisazo dye which gives negative results in a back mutation test using an organism, which is generally known as a test method for evaluating toxicity, i.e. AMES test (mutation test).
Evaluation method of Ames test
Regarding various specimen solutions respectively containing a trisazo dyes obtained in Examples 1 to 8 of the present invention and dyes of Comparative Examples 1 to 3, the number of mutant colonies was determined using strains TA98. 2. When the ratio is less than 2, it is "negative" and, when the ratio is more than 2, it is "positive", and the results are shown in Table. 1.

A short description of series [2]: Water resistance of writing (drawdown paper dipped in tap water, reflection density). Type of series: physicochemical. Particulars: drawndown paper, 3% dye solution, air-dried one day. On the procedure: Light resistance: The resulting dye was dissolved in a 5% aqueous diethylene glycol solution to obtain a 3% dye solution. […] A degree of discoloration was compared with that before testing.
Water resistance: The drawndown paper was air-dried for one day and dipped in tap water.
A: Reflection density is more than 70% of that before testing.
B: Reflection density is 50 to 70% of that before testing.
C: Reflection density is less than 50% that before testing.

A further series is described as follows: Hue of dye / writing. The class given is physicochemical.
Series [3] has as its system strains TA98. The following applies: cited from earlier work.

Where two headings read alike, the source gives them in different places.

For `Nc1ccc(N=Nc2ccc(N(c3ccccc3)c3ccc(N=Nc4c(S(=O)(=O)O)cc5cc(S(=O)(=O)O)c(N=Nc6ccccc6)c(O)c5c4N)cc3)cc2)c(O)c1` [Ex. 1], the “Ames test: ratio of the number of colonies to control” value (shortened to “Ames test: ratio”) came to 1.18 in the series on strains TA98 [1] (TA98, S-9 (+), 20 μg/plate); 1.17 in the series with strains TA98 [1] (TA98, S-9 (+), 78 μg/plate); 1.32 in the series on strains TA98 [1] (TA98, S-9 (+), 313 μg/plate); 0.41 with strains TA98 [1] (TA98, S-9 (+), 1250 μg/plate); 0.29 in the series with strains TA98 [1] (TA98, S-9 (+), 5000 μg/plate); 0.95 in the series on strains TA98 [1] (TA98, S-9 (-), 20 μg/plate). Moreover, the “Ames test: ratio” value amounted to 0.82 in the series on strains TA98 [1] (TA98, S-9 (-), 78 μg/plate); 0.82 in the series on strains TA98 [1] (TA98, S-9 (-), 313 μg/plate); 0.95 in the series on strains TA98 [1] (TA98, S-9 (-), 1250 μg/plate); 0.77 in the series with strains TA98 [1] (TA98, S-9 (-), 5000 μg/plate). The “Writing evaluation: Water resistance” value in series [2] was “A (Reflection density is more than 70% of that before testing.)”. Further, in “Hue of dye / writing”, the Hue result was “Reddish”.
Take `CCCCN(c1ccc(N=Nc2ccc(N)cc2O)cc1)c1ccc(N=Nc2c(S(=O)(=O)O)cc3cc(S(=O)(=O)O)c(N=Nc4ccc(C(C)CC)cc4)c(O)c3c2N)cc1` (centres unmarked) [Ex. 6]: the “Ames test: ratio” value with strains TA98 [1] (TA98, S-9 (+), 20 μg/plate) stood at 1.09; in the series on strains TA98 [1] (TA98, S-9 (+), 78 μg/plate), 1.04; in the series with strains TA98 [1] (TA98, S-9 (+), 313 μg/plate), 1.28; with strains TA98 [1] (TA98, S-9 (+), 1250 μg/plate), 1.48; in the series on strains TA98 [1] (TA98, S-9 (+), 5000 μg/plate), 1.33; in the series with strains TA98 [1] (TA98, S-9 (-), 20 μg/plate), 0.82. The “Ames test: ratio” value with strains TA98 [1] (TA98, S-9 (-), 78 μg/plate) was found to be 1.13; in the series on strains TA98 [1] (TA98, S-9 (-), 313 μg/plate) it was 1.11; in the series on strains TA98 [1] (TA98, S-9 (-), 1250 μg/plate), 1.32; in the series with strains TA98 [1] (TA98, S-9 (-), 5000 μg/plate) it was 1.60. The “Writing evaluation: Water resistance” value in series [2] is given as “A (Reflection density is more than 70% of that before testing.)”. Further, the Hue entry in “Hue of dye / writing” is listed as “Reddish”.
Consider `Nc1ccc(N=Nc2ccc(N=Nc3c(S(=O)(=O)[O-])cc4cc(S(=O)(=O)[O-])c(N=Nc5ccc(N=Nc6ccc(N)cc6N)cc5)c(O)c4c3N)cc2)c(N)c1.[Na+].[Na+]` [compound 2, C.I. Direct Black 19, reference compound], for which the “Ames test: ratio” value was found to be 8.33 with strains TA98 [1] (TA98, S-9 (+), 20 μg/plate); 24.2 in the series with strains TA98 [1] (TA98, S-9 (+), 78 μg/plate); 75.0 in the series with strains TA98 [1] (TA98, S-9 (+), 313 μg/plate); 52.8 in the series on strains TA98 [1] (TA98, S-9 (+), 1250 μg/plate); 4.00 in the series with strains TA98 [1] (TA98, S-9 (+), 5000 μg/plate); 0.92 with strains TA98 [1] (TA98, S-9 (-), 20 μg/plate). Further, the “Ames test: ratio” value in the series with strains TA98 [1] (TA98, S-9 (-), 78 μg/plate) is recorded as 0.88; in the series with strains TA98 [1] (TA98, S-9 (-), 313 μg/plate) it was 1.48; in the series with strains TA98 [1] (TA98, S-9 (-), 1250 μg/plate), 2.24; with strains TA98 [1] (TA98, S-9 (-), 5000 μg/plate), 2.84. Moreover, in series [2], the “Writing evaluation: Water resistance” value is listed as “A (Reflection density is more than 70% of that before testing.)”. Moreover, the Hue result in the series “Hue of dye / writing” is “Yellowish”; in the series “Hue of dye / writing” (listed as Comp. Example 2) it was “yellowish black”. Besides, the Ames test result in the series on strains TA98 [3] was “false positive or positive”.
`Nc1ccc(N=Nc2ccc(N(c3ccccc3)c3ccc(N=Nc4c(S(=O)(=O)O)cc5cc(S(=O)(=O)O)c(N=Nc6ccc(S(=O)(=O)O)cc6)c(O)c5c4N)cc3)cc2)c(O)c1` [Ex. 4]: the “Ames test: ratio” value was determined as 1.23 with strains TA98 [1] (TA98, S-9 (+), 20 μg/plate); 1.22 in the series on strains TA98 [1] (TA98, S-9 (+), 78 μg/plate); 1.21 in the series on strains TA98 [1] (TA98, S-9 (+), 313 μg/plate); 1.51 in the series with strains TA98 [1] (TA98, S-9 (+), 1250 μg/plate); 1.17 in the series on strains TA98 [1] (TA98, S-9 (+), 5000 μg/plate); 1.06 with strains TA98 [1] (TA98, S-9 (-), 20 μg/plate). In addition, the “Ames test: ratio” value in the series with strains TA98 [1] (TA98, S-9 (-), 78 μg/plate) stood at 1.02; with strains TA98 [1] (TA98, S-9 (-), 313 μg/plate), 1.05; in the series on strains TA98 [1] (TA98, S-9 (-), 1250 μg/plate), 0.99; in the series with strains TA98 [1] (TA98, S-9 (-), 5000 μg/plate), 1.02. The “Writing evaluation: Water resistance” value in series [2] is recorded as “A (Reflection density is more than 70% of that before testing.)”. Also, the Hue entry in the series “Hue of dye / writing” was “Reddish”.
In the case of `CN(c1ccc(N=Nc2ccc(N)cc2O)cc1)c1ccc(N=Nc2c(S(=O)(=O)O)cc3cc(S(=O)(=O)O)c(N=Nc4ccccc4)c(O)c3c2N)cc1` [Ex. 5], the “Ames test: ratio” value is 1.60 in the series with strains TA98 [1] (TA98, S-9 (+), 20 μg/plate); 1.56 in the series with strains TA98 [1] (TA98, S-9 (+), 78 μg/plate); 1.44 in the series with strains TA98 [1] (TA98, S-9 (+), 313 μg/plate); 1.72 with strains TA98 [1] (TA98, S-9 (+), 1250 μg/plate); 1.20 in the series on strains TA98 [1] (TA98, S-9 (+), 5000 μg/plate); 1.00 in the series with strains TA98 [1] (TA98, S-9 (-), 20 μg/plate). In addition, the “Ames test: ratio” value is reported as 0.78 in the series on strains TA98 [1] (TA98, S-9 (-), 78 μg/plate); 0.87 with strains TA98 [1] (TA98, S-9 (-), 313 μg/plate); 1.39 with strains TA98 [1] (TA98, S-9 (-), 1250 μg/plate); 1.65 with strains TA98 [1] (TA98, S-9 (-), 5000 μg/plate). The “Writing evaluation: Water resistance” value in series [2] was “B (Reflection density is 50 to 70% of that before testing.)”. Moreover, in “Hue of dye / writing”, the Hue result is listed as “Reddish”.
